Legend:
Type in all cases: cell-based, human
HTT [1] = experiment: Splicing RT-qPCR assay, HTT mRNA canonical junction (CJ) and alternative junction (AJ); conditions: Homo sapiens, gene panel, CJ qPCR, protocol of Example 142; read-out: HTT IC50 (decrease in CJ mRNA levels)
How it was run: (§1)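 A673 or K562 cells treated 24 h at 37 °C with 11-point 3-fold dilutions, top 10 uM, DMSO ≤0.25%. Lysates read by RT-qPCR for CJ and AJ isoforms, normalized to GAPDH, GUSB or PPIA; ΔΔCt vs DMSO converted to RQ, then percent response.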

MYB [2] = experiment: Splicing RT-qPCR assay, MYB mRNA canonical junction (CJ) and alternative junction (AJ); conditions: Homo sapiens, gene panel, CJ qPCR, protocol of Example 142; read-out: MYB IC50 (decrease in CJ mRNA levels)
How it was run: as §1

SMN2 = experiment: Splicing RT-qPCR panel, SMN2 canonical junction (CJ) mRNA; conditions: Homo sapiens, gene panel, CJ qPCR, protocol of Example 142; read-out: SMN2 IC50 (decrease in CJ mRNA levels)
How it was run: as §1

Target C [3] = experiment: Splicing RT-qPCR panel, Target C canonical junction (CJ) mRNA; conditions: Homo sapiens, gene panel, CJ qPCR, protocol of Example 142; read-out: Target C IC50 (decrease in CJ mRNA levels)
How it was run: as §1

MYB [4] = experiment: HiBiT protein abundance assay, MYB; conditions: Homo sapiens, Table 13B, modified K562 cells
How it was run: (§2)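 K562 cells with endogenous HiBiT-tagged target were treated 24 h at 37 °C with compound (10-point 3-fold dilution, top 10 μM final, DMSO ≤0.25%). Lytic LgBiT luminescence was normalized to unmodified K562 (baseline) and DMSO-treated tagged cells; IC50 interpolated at 50% from four-parameter logistic fit.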

HTT [5] = experiment: HiBiT protein abundance assay, HTT; conditions: Homo sapiens, Table 13B, modified K562 cells
How it was run: as §2

Target C [6] = experiment: HiBiT protein abundance assay, Target C; conditions: Homo sapiens, Table 13B, modified K562 cells
How it was run: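 HiBiT knock-in K562-derived cells, 10000 cells/well, were treated 24 h at 37 °C with a 10-point 3-fold dilution series (top 10 μM final, DMSO ≤0.25%). Lytic HiBiT luminescence was normalized to unmodified K562 and DMSO controls; IC50 was interpolated at 50% from a four-parameter logistic fit.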

SMILES | IC50 (HTT [1]) [nM] | IC50 (MYB [2]) [nM] | IC50 (SMN2) [nM] | IC50 (Target C [3]) [nM] | IC50 (MYB [4]; 24 hours) [nM] | IC50 (HTT [5]; 24 hours) [nM] | IC50 (Target C [6]; 24 hours) [nM] | IC50 (MYB [4]; K562, 24 h) [nM] | IC50 (HTT [5]; K562, 24 h) [nM] | IC50 (Target C [6]; K562, 24 h) [nM]
COc1nc(-c2ccc(N(C)[C@@H]3C[C@H]4CC[C@@H](C3)N4)nn2)ccc1-n1cccn1 [Compound 907] | 100 to 1000 | 1000 to 10000 | 100 to 1000 | > 10000 | 1000 to 10000 | 100 to 1000 | 1000 to 10000 |  |  | 
COc1nc(-c2ccc(N(C)[C@H]3CCN[C@@H](C)C3)nn2)ccc1-n1cccn1 [Compound 908] | > 10000 | > 10000 | 1000 to 10000 | 1000 to 10000 |  |  |  | 1000 to 10000 | 1000 to 10000 | > 10000
Cc1nc(-c2ccc(N(C)[C@@H]3C[C@H]4CC[C@@H](C3)N4)nn2)ccc1-c1cn[nH]c1 [Compound 912] | 1000 to 10000 | 1000 to 10000 | 100 to 1000 | 1000 to 10000 |  |  |  | 1000 to 10000 | 1000 to 10000 | 1000 to 10000
COc1nc(-c2ccc(N(C)[C@@H]3C[C@H]4CC[C@@H](C3)N4)nn2)ncc1-c1cn[nH]c1 [Compound 913] | 1000 to 10000 | 1000 to 10000 | 1000 to 10000 | 1000 to 10000 |  |  |  | 1000 to 10000 | 1000 to 10000 | 1000 to 10000
COc1cc(-c2ccc(N(C)[C@@H]3C[C@H]4CC[C@@H](C3)N4)nn2)ccc1-c1cn[nH]c1 [Compound 914] | 100 to 1000 | 1000 to 10000 | < 100 | 100 to 1000 |  |  |  | 1000 to 10000 | 1000 to 10000 | 100 to 1000
CN(c1ccc(-c2ccc(-c3cn[nH]c3)c(C(F)(F)F)n2)nn1)[C@@H]1C[C@H]2CC[C@@H](C1)N2 [Compound 916] | > 10000 | > 10000 | > 10000 | > 10000 |  |  |  | > 10000 | > 10000 | > 10000
COc1cc(-c2ccc(N(C)[C@@H]3C[C@H]4CC[C@@H](C3)N4)nn2)ncc1-c1cn[nH]c1 [Compound 921] | > 10000 | > 10000 | 1000 to 10000 | > 10000 |  |  |  | 1000 to 10000 | > 10000 | > 10000
CN(c1ccc(-c2ccc(-c3cn[nH]c3)c(Cl)n2)nn1)[C@@H]1C[C@H]2CC[C@@H](C1)N2 [Compound 923] | < 100 | 100 to 1000 | < 100 | 100 to 1000 |  |  |  | 100 to 1000 | < 100 | < 100
COc1nc(-c2ccc(NC3CCNCC3)nn2)ccc1-c1cn[nH]c1 [Compound 924] | 1000 to 10000 | > 10000 | 100 to 1000 | > 10000 |  |  |  | 1000 to 10000 | > 10000 | > 10000
COc1nc(-c2ccc(NC3CCNCC3)nn2)ccc1-c1cnn(C)c1 [Compound 925] | 1000 to 10000 | 1000 to 10000 | 100 to 1000 | > 10000 |  |  |  | 1000 to 10000 | 1000 to 10000 | 1000 to 10000
COc1nc(-c2ccc(OC3CC(C)(C)NC(C)(C)C3)nn2)ccc1-c1cnn(C)n1 [Compound 926] | 100 to 1000 | 1000 to 10000 | 100 to 1000 | 1000 to 10000 |  |  |  | 1000 to 10000 | 100 to 1000 | 100 to 1000
COc1nc(-c2ccc(N(C)C3CC(C)(C)NC(C)(C)C3)nn2)ccc1-c1cnn(C)n1 [Compound 927] | 100 to 1000 | 1000 to 10000 | 100 to 1000 | 1000 to 10000 |  |  |  | 100 to 1000 | 100 to 1000 | 100 to 1000
COc1nc(-c2ccc(N(C)[C@@H]3C[C@H]4CC[C@@H](C3)N4)nn2)cnc1-c1cn[nH]c1 [Compound 928] | 100 to 1000 | 100 to 1000 | < 100 | 100 to 1000 |  |  |  | 100 to 1000 | 100 to 1000 | 100 to 1000
